# Laboratory results published in patent US12491251B2, “Degraders of cyclin-dependent kinase 7 (CDK7) and uses thereof” (DANA-FARBER CANCER INSTITUTE, INC., priority 2019, dated 2025).
# Molecular target: T1, CDK7 (Homo sapiens, UniProt P50613)
# T1 construct: endogenous in cells; host or cells: Jurkat cells
# Assay: CDK7 degradation in Jurkat cells by immunoblot
# Type: cell-based
# Conditions: 1 μM compound, 6 hours, vs DMSO
# Procedure: Jurkat cells were treated with DMSO or 1 μM of compounds 1-26 for 6 hours. Cells were then lysed in radioimmunoprecipitation assay (RIPA) buffer (Sigma® Life Science) containing protease/phosphatase inhibitor cocktail (Roche). The protein concentrations were measured by bicinchoninic acid assay (BCA) analysis (Pierce™). Equal amounts of protein were resolved by 4-12% Tris-Base gels (Invitrogen™), and then transferred to the immunoblot polyvinylidene difluoride (PVDF) membrane (BioRad), and immunoblotted with primary antibodies against CDK7 (cell signaling) and glyceraldehyde 3-phosphate dehydrogenase (GAPDH) (Cell Signaling Technology®), and then immunoblotted with IRDye®800-labeled goat anti-rabbit immunoglobulin G (IgG) and IRDye®680-labeled goat anti-mouse IgG (LI-COR®) secondary antibodies. The membranes were detected on an Odyssey® CLx system.
# T1 sequence (P50613 2-346 limits assumed): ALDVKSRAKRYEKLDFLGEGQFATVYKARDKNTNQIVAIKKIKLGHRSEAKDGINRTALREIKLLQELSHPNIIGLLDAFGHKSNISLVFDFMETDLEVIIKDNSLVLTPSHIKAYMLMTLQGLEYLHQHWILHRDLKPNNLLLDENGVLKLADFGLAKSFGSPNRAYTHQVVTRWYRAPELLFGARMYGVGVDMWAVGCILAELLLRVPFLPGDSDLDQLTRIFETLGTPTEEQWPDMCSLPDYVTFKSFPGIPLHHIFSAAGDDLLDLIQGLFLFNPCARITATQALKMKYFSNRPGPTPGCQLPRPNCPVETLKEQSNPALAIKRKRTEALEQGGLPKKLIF
# T1 sequence (P51946 whole entry partner): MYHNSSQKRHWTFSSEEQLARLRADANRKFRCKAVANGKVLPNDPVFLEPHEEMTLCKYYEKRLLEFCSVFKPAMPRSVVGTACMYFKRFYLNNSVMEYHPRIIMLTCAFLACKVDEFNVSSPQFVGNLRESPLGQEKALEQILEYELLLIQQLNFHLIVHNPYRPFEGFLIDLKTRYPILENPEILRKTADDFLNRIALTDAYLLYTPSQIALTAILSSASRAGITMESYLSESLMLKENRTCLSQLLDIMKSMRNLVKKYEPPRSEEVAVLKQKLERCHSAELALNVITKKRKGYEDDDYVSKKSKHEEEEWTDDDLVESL
# T1 sequence (P51948 whole entry partner): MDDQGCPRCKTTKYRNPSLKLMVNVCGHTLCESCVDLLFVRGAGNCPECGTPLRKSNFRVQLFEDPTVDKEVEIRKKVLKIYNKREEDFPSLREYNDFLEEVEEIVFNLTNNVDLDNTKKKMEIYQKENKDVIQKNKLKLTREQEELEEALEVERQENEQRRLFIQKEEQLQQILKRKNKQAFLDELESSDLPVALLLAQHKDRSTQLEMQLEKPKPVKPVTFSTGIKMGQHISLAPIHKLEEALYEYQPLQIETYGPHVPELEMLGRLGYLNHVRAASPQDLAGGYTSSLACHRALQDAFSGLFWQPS
row,Structure (SMILES),degradation of CDK7 (immunoblot)
1,"CN(C)C[C@@H](NC(=O)N1Cc2c(NC(=O)c3ccc(C(=O)NCCOCCOCCOCCNc4cccc5c4C(=O)N(C4CCC(=O)NC4=O)C5=O)cc3)n[nH]c2C1(C)C)c1ccccc1 (stereo partly drawn) [Compound 1, N1-(5-(((S)-2-(dimethylamino)-1-phenylethyl)carbamoyl)-6,6-dimethyl-1,4,5,6-tetrahydropyrrolo[3,4-c]pyrazol-3-yl)-N4-(2-(2-(2-(2-((2-(2,6-dioxopiperidin-3-yl)-1,3-dioxoisoindolin-4-yl)amino)ethoxy)ethoxy)ethoxy)ethyl)terephthalamide]",induced the degradation of CDK7
2,Cc1ncsc1-c1ccc([C@H](C)NC(=O)[C@@H]2C[C@@H](O)CN2C(=O)[C@@H](NC(=O)CCOCCOCCNC(=O)c2ccc(C(=O)Nc3n[nH]c4c3CN(C(=O)N[C@H](CN(C)C)c3ccccc3)C4(C)C)cc2)C(C)(C)C)cc1 [Compound 6],induced the degradation of CDK7
3,"CN(C)C[C@@H](NC(=O)N1Cc2c(NC(=O)c3ccc(C(=O)NCCCCC#Cc4cccc5c4C(=O)N(C4CCC(=O)NC4=O)C5=O)cc3)n[nH]c2C1(C)C)c1ccccc1 (stereo partly drawn) [Compound 7, N^1-(5-(((S)-2-(dimethylamino)-1-phenylethyl)carbamoyl)-6,6-dimethyl-1,4,5,6-tetrahydropyrrolo[3,4-c]pyrazol-3-yl)-N^4-(6-(2-(2,6-dioxopiperidin-3-yl)-1,3-dioxoisoindolin-4-yl)hex-5-yn-1-yl)terephthalamide]",induced the degradation of CDK7
4,"CN(C)C[C@@H](NC(=O)N1Cc2c(NC(=O)c3ccc(C(=O)NCCCCCOc4cccc5c4C(=O)N(C4CCC(=O)NC4=O)C5=O)cc3)n[nH]c2C1(C)C)c1ccccc1 (stereo partly drawn) [Compound 8, N^1-(5-(((S)-2-(dimethylamino)-1-phenylethyl)carbamoyl)-6,6-dimethyl-1,4,5,6-tetrahydropyrrolo[3,4-c]pyrazol-3-yl)-N^4-(5-((2-(2,6-dioxopiperidin-3-yl)-1,3-dioxoisoindolin-4-yl)oxy)pentyl)terephthalamide]",induced the degradation of CDK7
5,"CN(C)C[C@@H](NC(=O)N1Cc2c(NC(=O)c3ccc(C(=O)NCCCCCCCCOc4cccc5c4C(=O)N(C4CCC(=O)NC4=O)C5=O)cc3)n[nH]c2C1(C)C)c1ccccc1 (stereo partly drawn) [Compound 9, N^1-(5-(((S)-2-(dimethylamino)-1-phenylethyl)carbamoyl)-6,6-dimethyl-1,4,5,6-tetrahydropyrrolo[3,4-c]pyrazol-3-yl)-N^4-(8-((2-(2,6-dioxopiperidin-3-yl)-1,3-dioxoisoindolin-4-yl)oxy)octyl)terephthalamide]",induced the degradation of CDK7
6,"CN(C)C[C@@H](NC(=O)N1Cc2c(NC(=O)c3ccc(NC(=O)CCCCCCCCCCOc4cccc5c4C(=O)N(C4CCC(=O)NC4=O)C5=O)cc3)n[nH]c2C1(C)C)c1ccccc1 (stereo partly drawn) [Compound 10, N—((S)-2-(dimethylamino)-1-phenylethyl)-3-(4-(11-((2-(2,6-dioxopiperidin-3-yl)-1,3-dioxoisoindolin-4-yl)oxy)undecanamido)benzamido)-6,6-dimethyl-4,6-dihydropyrrolo[3,4-c]pyrazole-5(1H)-carboxamide]",induced the degradation of CDK7
7,"Cc1ncsc1-c1ccc([C@H](C)NC(=O)[C@@H]2C[C@@H](O)CN2C(=O)[C@@H](NC(=O)CCCCCNC(=O)c2ccc(C(=O)Nc3n[nH]c4c3CN(C(=O)N[C@H](CN(C)C)c3ccccc3)C4(C)C)cc2)C(C)(C)C)cc1 [Compound 12, N^1-(5-(((S)-2-(dimethylamino)-1-phenylethyl)carbamoyl)-6,6-dimethyl-1,4,5,6-tetrahydropyrrolo[3,4-c]pyrazol-3-yl)-N^4-(6-(((S)-1-((2S,4R)-4-hydroxy-2-(((S)-1-(4-(4-methylthiazol-5-yl)phenyl)ethyl)carbamoyl)pyrrolidin-1-yl)-3,3-dimethyl-1-oxobutan-2-yl)amino)-6-oxohexyl)terephthalamide]",induced the degradation of CDK7
8,"CN(C)C[C@@H](NC(=O)N1Cc2c(NC(=O)c3ccc(C(=O)NCCCCCCc4cccc5c4C(=O)N(C4CCC(=O)NC4=O)C5=O)cc3)n[nH]c2C1(C)C)c1ccccc1 (stereo partly drawn) [Compound 13, N^1-(5-(((S)-2-(dimethylamino)-1-phenylethyl)carbamoyl)-6,6-dimethyl-1,4,5,6-tetrahydropyrrolo[3,4-c]pyrazol-3-yl)-N^4-(6-(2-(2,6-dioxopiperidin-3-yl)-1,3-dioxoisoindolin-4-yl)hexyl)terephthalamide]",induced the degradation of CDK7
9,"Cc1ncsc1-c1ccc([C@H](C)NC(=O)[C@@H]2C[C@@H](O)CN2C(=O)[C@@H](NC(=O)CCOCCNC(=O)c2ccc(C(=O)Nc3n[nH]c4c3CN(C(=O)N[C@H](CN(C)C)c3ccccc3)C4(C)C)cc2)C(C)(C)C)cc1 [Compound 15, N^1-(5-(((S)-2-(dimethylamino)-1-phenylethyl)carbamoyl)-6,6-dimethyl-1,4,5,6-tetrahydropyrrolo[3,4-c]pyrazol-3-yl)-N^4-(2-(3-(((S)-1-((2S,4R)-4-hydroxy-2-(((S)-1-(4-(4-methylthiazol-5-yl)phenyl)ethyl)carbamoyl)pyrrolidin-1-yl)-3,3-dimethyl-1-oxobutan-2-yl)amino)-3-oxopropoxy)ethyl)terephthalamide]",induced the degradation of CDK7
10,"CN(C)C[C@@H](NC(=O)N1Cc2c(NC(=O)c3ccc(NC(=O)CCCNc4cccc5c4C(=O)N(C4CCC(=O)NC4=O)C5=O)cc3)n[nH]c2C1(C)C)c1ccccc1 (stereo partly drawn) [Compound 16, N—((S)-2-(dimethylamino)-1-phenylethyl)-3-(4-(4-((2-(2,6-dioxopiperidin-3-yl)-1,3-dioxoisoindolin-4-yl)amino)butanamido)benzamido)-6,6-dimethyl-4,6-dihydropyrrolo[3,4-c]pyrazole-5(1H)-carboxamide]",induced the degradation of CDK7
11,"CN(C)C[C@@H](NC(=O)N1Cc2c(NC(=O)c3ccc(C(=O)NCCCCCNc4ccc5c(c4)C(=O)N(C4CCC(=O)NC4=O)C5=O)cc3)n[nH]c2C1(C)C)c1ccccc1 (stereo partly drawn) [Compound 21, N^1-(5-(((S)-2-(dimethylamino)-1-phenylethyl)carbamoyl)-6,6-dimethyl-1,4,5,6-tetrahydropyrrolo[3,4-c]pyrazol-3-yl)-N^4-(5-((2-(2,6-dioxopiperidin-3-yl)-1,3-dioxoisoindolin-5-yl)amino)pentyl)terephthalamide]",induced the degradation of CDK7
12,"Cc1ncsc1-c1ccc([C@H](C)NC(=O)[C@@H]2C[C@@H](O)CN2C(=O)[C@@H](NC(=O)CCCCCCNC(=O)c2ccc(C(=O)Nc3n[nH]c4c3CN(C(=O)N[C@H](CN(C)C)c3ccccc3)C4(C)C)cc2)C(C)(C)C)cc1 [Compound 22, N^1-(5-(((S)-2-(dimethylamino)-1-phenylethyl)carbamoyl)-6,6-dimethyl-1,4,5,6-tetrahydropyrrolo[3,4-c]pyrazol-3-yl)-N^4-(7-(((S)-1-((2S,4R)-4-hydroxy-2-(((S)-1-(4-(4-methylthiazol-5-yl)phenyl)ethyl)carbamoyl)pyrrolidin-1-yl)-3,3-dimethyl-1-oxobutan-2-yl)amino)-7-oxoheptyl)terephthalamide]",induced the degradation of CDK7
13,"Cc1ncsc1-c1ccc([C@H](C)NC(=O)[C@@H]2C[C@@H](O)CN2C(=O)[C@@H](NC(=O)CCCCCCCNC(=O)c2ccc(C(=O)Nc3n[nH]c4c3CN(C(=O)N[C@H](CN(C)C)c3ccccc3)C4(C)C)cc2)C(C)(C)C)cc1 [Compound 23, N^1-(5-(((S)-2-(dimethylamino)-1-phenylethyl)carbamoyl)-6,6-dimethyl-1,4,5,6-tetrahydropyrrolo[3,4-c]pyrazol-3-yl)-N^4-(8-(((S)-1-((2S,4R)-4-hydroxy-2-(((S)-1-(4-(4-methylthiazol-5-yl)phenyl)ethyl)carbamoyl)pyrrolidin-1-yl)-3,3-dimethyl-1-oxobutan-2-yl)amino)-8-oxooctyl)terephthalamide]",induced the degradation of CDK7
14,"Cc1ncsc1-c1ccc([C@H](C)NC(=O)[C@@H]2C[C@@H](O)CN2C(=O)[C@@H](NC(=O)CCOCCOCCOCCNC(=O)c2ccc(C(=O)Nc3n[nH]c4c3CN(C(=O)N[C@H](CN(C)C)c3ccccc3)C4(C)C)cc2)C(C)(C)C)cc1 [Compound 25, N^1-(5-(((S)-2-(dimethylamino)-1-phenylethyl)carbamoyl)-6,6-dimethyl-1,4,5,6-tetrahydropyrrolo[3,4-c]pyrazol-3-yl)-N^4—((S)-14-((2S,4R)-4-hydroxy-2-(((S)-1-(4-(4-methylthiazol-5-yl)phenyl)ethyl)carbamoyl)pyrrolidine-1-carbonyl)-15,15-dimethyl-12-oxo-3,6,9-trioxa-13-azahexadecyl)terephthalamide]",induced the degradation of CDK7
15,"CN(C)C[C@@H](NC(=O)N1Cc2c(NC(=O)c3ccc(C(=O)NCCOCCOCCNc4cccc5c4C(=O)N(C4CCC(=O)NC4=O)C5=O)cc3)n[nH]c2C1(C)C)c1ccccc1 (stereo partly drawn) [Compound 26, N^1-(5-(((S)-2-(dimethylamino)-1-phenylethyl)carbamoyl)-6,6-dimethyl-1,4,5,6-tetrahydropyrrolo[3,4-c]pyrazol-3-yl)-N^4-(2-(2-(2-((2-(2,6-dioxopiperidin-3-yl)-1,3-dioxoisoindolin-4-yl)amino)ethoxy)ethoxy)ethyl)terephthalamide]",induced the degradation of CDK7
